Test results reported in article PMC11405510 (Scientific Reports, 2024).

Biological target: T1, Ha006a (Helicoverpa armigera, UniProt D5G3E0)
T1 sequence (D5G3E0 25-548): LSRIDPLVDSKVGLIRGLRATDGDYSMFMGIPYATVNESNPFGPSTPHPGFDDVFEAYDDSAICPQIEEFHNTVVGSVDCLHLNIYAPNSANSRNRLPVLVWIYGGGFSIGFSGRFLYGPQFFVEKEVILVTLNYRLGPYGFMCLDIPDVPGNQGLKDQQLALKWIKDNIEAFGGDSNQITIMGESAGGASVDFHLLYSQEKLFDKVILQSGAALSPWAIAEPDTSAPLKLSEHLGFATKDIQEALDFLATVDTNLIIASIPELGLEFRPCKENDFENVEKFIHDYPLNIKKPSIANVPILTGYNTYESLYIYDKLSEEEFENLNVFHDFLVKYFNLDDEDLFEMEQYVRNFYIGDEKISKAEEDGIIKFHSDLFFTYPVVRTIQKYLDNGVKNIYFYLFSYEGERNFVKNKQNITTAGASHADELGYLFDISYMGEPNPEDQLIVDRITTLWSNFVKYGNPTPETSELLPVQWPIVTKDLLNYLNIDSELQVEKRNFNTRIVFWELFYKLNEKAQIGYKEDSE
Assay: Differential scanning calorimetry of Ha006a-ligand complexes
Type: binding
Settings: DSC; for Tm1 (°C) ± SE: first thermal transition, 50 μM protein, non-two-state fit; for Tm2 (°C) ± SE: second thermal transition; for Tm3 (°C) ± SE: third thermal transition

| SMILES | Tm1 (°C) ± SE | ΔH (molar heat enthalpy) (first transition (Tm1)) [kcal/mol] | ΔHv (van't Hoff enthalpy) (first transition (Tm1)) [kcal/mol] | ΔHv/ΔH (first transition (Tm1)) | Tm2 (°C) ± SE | ΔH (molar heat enthalpy) (second transition (Tm2)) [kcal/mol] | ΔHv (van't Hoff enthalpy) (second transition (Tm2)) [kcal/mol] | ΔHv/ΔH (second transition (Tm2)) | Tm3 (°C) ± SE | ΔH (molar heat enthalpy) (third transition (Tm3)) [kcal/mol] | ΔHv (van't Hoff enthalpy) (third transition (Tm3)) [kcal/mol] | ΔHv/ΔH (third transition (Tm3)) |
| --- | --- | --- | --- | --- | --- | --- | --- | --- | --- | --- | --- | --- |
| COc1cc(OC)c2c(=O)cc(-c3ccc(OC)c(OC)c3)oc2c1 [3′,4′,5,7-Tetramethoxyflavone] | Tm1 51.52 ± 0.25 °C | 584000 | 34000 | 0.06 | Tm2 79.01 ± 0.98 °C | 957000 | 35300 | 0.04 | Tm3 91.76 ± 0.43 °C | 358000 | 58800 | 0.16 |
| O=C(/C=C/C=C/c1ccc2c(c1)OCO2)N1CCCCC1 [Piperine] | Tm1 51.30 ± 0.32 °C | 218000 | 43300 | 0.20 | Tm2 65.47 ± 0.33 °C | 209000 | 40800 | 0.20 | Tm3 80.80 ± 0.36 °C | 44600 | 40900 | 0.92 |
| CN1CCc2cc3c(cc2C(=O)Cc2ccc4c(c2C1)OCO4)OCO3 [Protopine] | Tm1 49.93 ± 0.55 °C | 630000 | 43200 | 0.07 | Tm2 66.76 ± 0.33 °C | 1.87e+06 | 31500 | 0.02 | Tm3 86.29 ± 0.67 °C | 783000 | 40100 | 0.05 |
| O=P(Oc1ccccc1)(Oc1ccccc1)Oc1ccccc1 [Triphenyl phosphate, reference compound] | Tm1 51.32 ± 1.70 °C | 457000 | 35900 | 0.08 | Tm2 67.66 ± 0.26 °C | 1.31e+06 | 66800 | 0.05 | Tm3 78.21 ± 0.44 °C | 472000 | 89500 | 0.19 |
